In patent publication US7501383B2, “Substituted [1,2,4]triazolo[1,5-a]pyrimidines and their use for controlling harmful fungi” (BASF Aktiengesellschaft, priority 2004, dated 2009):

melting point: 193 to 194 °C
Structure (SMILES): CCCCCCc1nc2nnnc-2c(N)n1C [I-2, 5-hexyl-6-methyl-7-aminotriazolopyrimidine]
